# Assay results published in US9381201B2, “Pharmaceutical composition and kit for treating bacterial infections” (priority 2011, dated 2016).
# Columns and labels:
# [1] = tested on: intracellular Mycobacterium tuberculosis; conditions: cited from earlier work
# [2] = tested on: gram-positive microorganisms; conditions: many gram-positive microorganisms; cited from earlier work
# gram-negative bacteria = conditions: a large number of gram-negative bacteria; cited from earlier work
# [3] = tested on: tuberculosis Mycobacterium; conditions: cited from earlier work
# Streptococcus pyogenes = Streptococcus pyogenes resistant to penicillin and other antibiotics; cited from earlier work
# [4] = in vivo; cited from earlier work
# [5] = tested on: Mycobacterium tuberculosis Erdman (ATCC 35801); experiment: anti-tuberculosis activity on a model of mice infected with Mycobacterium tuberculosis (acute tuberculosis infection); conditions: Rifalazil 2.5 mg/kg/day intraperitoneally, 3 week administration, BALB/c mice
molecule,measurement,setting,value
CO[C@H]1/C=C/O[C@@]2(C)Oc3c(C)c(O)c4c(c3C2=O)C2=NC3(CCN(CC(C)C)CC3)NC2=C(NC(=O)/C(C)=C\C=C\[C@H](C)[C@H](O)[C@@H](C)[C@@H](O)[C@@H](C)[C@H](OC(C)=O)[C@@H]1C)C4=O [Rifabutin],active concentration relative to Rifampicin,[1],2 times less
CO[C@H]1/C=C/O[C@@]2(C)Oc3c(C)c(O)c4c(O)c(c(/C=N/N5CCN(C)CC5)c(O)c4c3C2=O)NC(=O)/C(C)=C\C=C\[C@H](C)[C@H](O)[C@@H](C)[C@@H](O)[C@@H](C)[C@H](OC(C)=O)[C@@H]1C [Rifampicin],minimal inhibiting concentration,[2],1 to 100 ng/mL
same,minimal inhibiting concentration,gram-negative bacteria,1000 to 10000 ng/mL
same,minimal inhibiting concentration,[3],5 to 500 ng/mL
same,share of Streptococcus pyogenes sensitive,Streptococcus pyogenes,Over 95%
Rifalazil,half-life of elimination,[4],> 100 h
same,Lowering of micobacterium titers in mice lungs in comparison with the control (CMC) on the 31 day,[5],87 times
